Data: patent publication US6924314B2, “Compounds for the treatment of metabolic disorders” (Wellstat Therapeutics Corporation, priority 2001, dated 2005)

Legend:
[1] = system: db/db mice; assay: Antidiabetic effects in db/db mice, 2 weeks (Example J); type: in vivo, C57BL/Ksola mice; settings: for Glucose / Glucose (% of Control): nonfasting; for Free Fatty Acids ± SEM / Triglycerides ± SEM: serum, daily oral
Text: db/db mice have a defect in leptin signaling, leading to hyperphagia, obesity and diabetes. Moreover, unlike ob/ob mice on a C57BL/6J background, db/db mice on a C57BL/KS background undergo failure of their insulin-producing pancreatic islet cells, resulting in progression from hyperinsulinemia (associated with peripheral insulin resistance) to hypoinsulinemic diabetes.
A minimum of 7 days was allowed for adaptation after arrival.
Treatment cohorts were given daily oral doses of Vehicle (1% hydroxypropylmethylcellulose), Compounds BI, BS, BT, BU, BV or Fenofibrate for 2 weeks. At the end of the treatment period 100 μl of venous blood was withdrawn in a heparinized capillary tube from the retro-orbital sinus of db/db mice for serum chemistry analysis.

[2] = system: Zucker Diabetic Fatty (ZDF) rats; assay: Attenuation of cataractogenesis in Zucker Diabetic Fatty (ZDF) rats; type: in vivo; settings: 100 mg/kg daily oral, 10 weeks
Text: Cataracts are one of the leading causes of progressive vision decline and blindness associated with ageing and diabetes, and the Zucker diabetic fatty (ZDF) model has many similarities with human cataractogenesis, including biochemical changes and oxidative stress in the lens. These rats, however, undergo cataractogenesis typically between 14-16 weeks of age.
Male ZDF rats and their aged-match Zucker lean (ZL) counterparts (fa/+ or +/+) were obtained from Genetic Models, Inc. (Indianapolis, Ind.) aged 12 weeks and acclimatized for 1 week prior to study. […] Treatment cohorts were given a daily oral dose of vehicle and 100 mg/kg of BI or BH for 10 weeks. […] At the end of the treatment period 100 μl of venous blood was collected (usually 10:00 A.M.) in a heparinized tube from the tail vein for serum chemistry analysis (Anilytics, Inc., Gaithersburg, Md.). […] Plasma insulin was measured by an electrochemiluminescent immunoassay, ECL (Origen Analyzer, Igen, Inc., Gaithersburg, Md.). The animals were sacrificed and tissues and/or organs (lens and liver) were extirpated, weighed (wet weight) and processed for biochemical analyses. Malondialdehyde (MDA), a major product of lipid peroxidation was assayed in lenses according to Ohkawa et al (1979), Analytical Biochem 95, 351-358).

[3] = system: db/db mice; assay: Antidiabetic effects in db/db mice, four weeks of daily oral dosing; type: in vivo; settings: for Glucose / Glucose (% of Control): 150 mg/kg daily oral, four weeks; for blood glucose: after four weeks of daily oral dosing (Compound AW, BH 150 mg/kg; pioglitazone 100 mg/kg)
Text: Db/db mice have a defect in leptin signaling, leading to hyperphagia, obesity and diabetes. Moreover, unlike ob/ob mice which have relatively robust islets, their insulin-producing pancreatic islet cells undergo failure during chronic hyperglycemia, so that they transition from hyperinsulinemia (associated with peripheral insulin resistance) to hypoinsulinemic diabetes.
Male db/db mice were given daily oral treatments with vehicle (0.75% hydroxypropylmethylcellulose) or antidiabetic compounds as indicated below. Blood samples were obtained via the retro-orbital sinus for serum chemistry analysis, or via the tail vein for glucose measurement with a test strip and glucometer.
The dose of pioglitazone used in this experiment was reported in the literature to be a maximally-effective dose for treatment of db/db mice (Shimaya et al. (2000), Metabolism 49:411-7).

[4] = system: ob/ob obese diabetic mice; assay: Acute hypoglycemic effect in ob/ob obese diabetic mice: Expt 2; type: in vivo; settings: single oral dose 250 mg/kg
Experimental: Male ob/ob mice (50-55 grams; blood glucose ˜300 mg/dL) were divided into groups of five animals each, and given a single oral dose of test drug (250 mg/kg) suspended in 0.5% carboxymethylcellulose vehicle; a control group received oral vehicle alone.
Six hours after oral administration of test drugs or vehicle (control), blood samples were obtained from a tail vein and glucose content was determined with a glucometer.

[5] = system: ob/ob mice; assay: Hyperglycemia, hyperlipidemia, fatty liver disease and weight gain in ob/ob obese diabetic mice, daily oral dosing; type: in vivo, C57BL/6 mice; settings: for Free Fatty Acids ± SEM / Glucose ± SEM / Triglycerides ± SEM / ALT (U/L) ± SEM / AST (U/L) ± SEM / SDH (U/L) ± SEM: 4 weeks; for ALT (U/L) ± SEM / AST (U/L) ± SEM / SDH (U/L) ± SEM: serum
Text: Ob/ob mice have a defect in the gene for leptin, a protein involved in appetite regulation and energy metabolism, and are hyperphagic, obese, and insulin resistant. They develop hyperglycemia and fatty liver.

## Cc1cccc(C)c1COc1cccc(CCCC(=O)O)c1 [BS, 4-(3-(2,6-Dimethylbenzyloxy)phenyl)butyric acid]
[1]; 93 mg/kg daily oral
  Glucose: 372.0 ± 53.8 mg/dL
  Glucose (% of Control): 54 ± 8 % of Control
[1]; dose per Table 12: 93 mg/kg
  Free Fatty Acids ± SEM: 2867.4 ± 267.7 µM
  Triglycerides ± SEM: 132.0 ± 15.2 mg/dL

## CC(C)OC(=O)C(C)(C)Oc1ccc(C(=O)c2ccc(Cl)cc2)cc1 [Fenofibrate, reference compound]
[1]; 113 mg/kg daily oral
  Glucose: 563.2 ± 49.0 mg/dL
  Glucose (% of Control): 81 ± 7 % of Control
[1]; dose per Table 12: 113 mg/kg
  Free Fatty Acids ± SEM: 3318.5 ± 208.7 µM
  Triglycerides ± SEM: 109.3 ± 9.1 mg/dL

## COc1cc(C(=O)CCC(=O)O)ccc1OCc1c(C)cccc1C [BT, 4-[[4-(2,6-Dimethylbenzyloxy)-3-methoxy]phenyl]-4-oxobutyric acid]
[1]; 107 mg/kg daily oral
  Glucose: 684.3 ± 63.6 mg/dL
  Glucose (% of Control): 99 ± 9 % of Control
[1]; dose per Table 12: 107 mg/kg
  Free Fatty Acids ± SEM: 3897.7 ± 291.3 µM
  Triglycerides ± SEM: 211.5 ± 21.5 mg/dL

## O=C(O)CCC(=O)c1cccc(OCC2CC2)c1 [Compound BH, 4-(3-((Cyclopropyl)-methoxy)phenyl)-4-oxobutyric acid]
[2]
  % Protection Left Eye: 33%
  % Protection Right Eye: 17%
  Cataract Formation Left Eye: 4/6
  Cataract Formation Right Eye: 5/6
[2]; means ± SEM
  Lenticular MDA: 1.9 ± 0.2 nmol/g lens
  Size (mm) Left Lens: 2.5 ± 0.3 mm
  Size (mm) Right Lens: 2.1 ± 0.4 mm
  Weight (mg) Left Lens: 27.0 ± 7.2 mg
  Weight (mg) Right Lens: 20.0 ± 6.6 mg
[3]
  Glucose: 229 ± 49 mg/dL
  Glucose (% of Control): 41 ± 9 % of Control
  blood glucose: significant reduction in blood glucose

## O=C(O)CCC(=O)c1cccc(OCc2c(F)cccc2F)c1 [Compound AW, 4-(3-(2,6-Difluorobenzyloxy)phenyl)-4-oxobutyric acid]
[3]
  Glucose: 313 ± 34 mg/dL
  Glucose (% of Control): 56 ± 6 % of Control
  blood glucose: significant reduction in blood glucose
[4]
  Blood Glucose after 6 hours: 143 ± 15 mg/dL
[5]; 3 mg/kg/day, four week treatment period
  Mean body weight gain (grams): +7.3 grams
[5]; 10 mg/kg/day oral
  Free Fatty Acids ± SEM: 3697.4 ± 357.8 µmol/L
  Glucose ± SEM: 369.6 ± 62.5 mg/dL
  Triglycerides ± SEM: 115.6 ± 7.8 mg/dL
  ALT (U/L) ± SEM: 483.8 ± 81.9 U/L
  AST (U/L) ± SEM: 653.4 ± 104.8 U/L
  SDH (U/L) ± SEM: 626.8 ± 93.8 U/L
[5]; 10 mg/kg/day, four week treatment period
  Mean body weight gain (grams): +6.7 grams
[5]; 30 mg/kg/day oral
  Free Fatty Acids ± SEM: 2552.2 ± 334.7 µmol/L
  Glucose ± SEM: 280.2 ± 46.7 mg/dL
  Triglycerides ± SEM: 96.4 ± 7.3 mg/dL
  ALT (U/L) ± SEM: 320.2 ± 46.2 U/L
  AST (U/L) ± SEM: 399.6 ± 74.4 U/L
  SDH (U/L) ± SEM: 333.0 ± 66.9 U/L
[5]; 30 mg/kg/day, four week treatment period
  Mean body weight gain (grams): +6.4 grams
[5]; 100 mg/kg/day oral
  Free Fatty Acids ± SEM: 1476 ± 82.1 µmol/L
  Glucose ± SEM: 286 ± 47.1 mg/dL
  Triglycerides ± SEM: 66.2 ± 5.9 mg/dL
  ALT (U/L) ± SEM: 202.8 ± 38.0 U/L
  AST (U/L) ± SEM: 143.8 ± 30.4 U/L
  SDH (U/L) ± SEM: 121.2 ± 14.1 U/L
[5]; 100 mg/kg/day, four week treatment period
  Mean body weight gain (grams): +3.4 grams
[5]; 150 mg/kg/day oral
  Free Fatty Acids ± SEM: 1481 ± 158.8 µmol/L
  Glucose ± SEM: 188.6 ± 28.8 mg/dL
  Triglycerides ± SEM: 72.6 ± 5.6 mg/dL
  ALT (U/L) ± SEM: 149.2 ± 15.6 U/L
  AST (U/L) ± SEM: 185.8 ± 26.0 U/L
  SDH (U/L) ± SEM: 166.2 ± 20.0 U/L
[5]; 150 mg/kg/day, four week treatment period
  Mean body weight gain (grams): +4.6 grams
[5]; 300 mg/kg/day oral
  Free Fatty Acids ± SEM: 1452.6 ± 111.1 µmol/L
  Glucose ± SEM: 128.4 ± 8.8 mg/dL
  Triglycerides ± SEM: 63.6 ± 3.4 mg/dL
  ALT (U/L) ± SEM: 188.2 ± 10.3 U/L
  AST (U/L) ± SEM: 335.4 ± 44.8 U/L
  SDH (U/L) ± SEM: 207.0 ± 29.3 U/L
[5]; 300 mg/kg/day, four week treatment period
  Mean body weight gain (grams): −0.7 grams
[5]; daily oral doses, compared with pioglitazone and rosiglitazone
  blood glucose: reduction in blood glucose comparable to that achieved with pioglitazone and rosiglitazone
[5]; daily treatment for 4 weeks
  liver fat droplets (liver histology): marked reduction in liver fat droplets
[5]; doses of 100 to 300 mg/kg/day, versus comparators at their optimum antihyperglycemic doses
  serum triglycerides and fatty acids: reduced serum triglycerides and fatty acids better than did either rosiglitazone or pioglitazone
[5]; doses ranging from 30 mg/kg/day to 300 mg/kg/day
  serum liver enzymes (ALT, AST, SDH): dose-dependent decrease in serum liver enzymes
[5]; four week treatment period
  weight gain relative to vehicle-treated mice: dose-dependent attenuation of weight gain
